This assay deals with BMP4. As to the kind of experiment: BMP4 cell assay (BMP reporter). Format: cell-based. Particulars: series of scaffold drawing 183 (R, R1).

Compound `c1cc(-c2cnc3cc(-c4ccc5c(c4)OCCO5)ccn23)ccn1` [Example 6, 7-(2,3-dihydrobenzo[b][1,4]dioxin-6-yl)-3-(pyridin-4-yl)imidazo[1,2-a]pyridine] returned an IC50 of 6.1 µM.
